The source of these data is EPA's ToxValDB 9.5 (doi:10.2903/j.efsa.2009.181r).

The structures appear in SMILES notation. Values after ≈ are worked out from the molar mass of the structure shown. Bounds are passed on as bounds.

The subject of one data set is Anas platyrhynchos. The settings on record: short-term; oral; feed; mortality.
In the next data set the test system is Apis mellifera. The settings on record: acute; dermal; mortality.
The next data set relates to Avena sativa. The settings on record: chronic/long-term; body weight.
Another data set deals with Bibionidae. The note with it: chronic/long-term; duration: 28 days; seedling emergence.
The subject of the next data set is Colinus virginianus. The settings on record: mortality.
The subject of a further data set is Daphnia magna. The note with it: chronic/long-term; duration: 21 days; reproduction.
The test system of the next data set is Pardosa sp. The note with it: acute; duration: 7 days; mortality.

What is called NOAEL is the highest dose or exposure tested at which no adverse effect was seen. Take `CC(C)N(C(=O)SCC(Cl)=C(Cl)Cl)C(C)C` [Tri-allate]: the LC50 with Anas platyrhynchos was over 1210 mg/kg-day; in the data set on Oncorhynchus mykiss (acute, duration: 96 hours, mortality) it was 0.95 µg/mL (≈ 3.12 µM); in the data set with Tagia sp. (acute, duration: 14 days, mortality) it was 549 mg/kg. Besides, the LD50 in the data set with Apis mellifera is over 100 µg/piece; with Colinus virginianus (acute, oral), 1560 mg/kg-day; with Rattus norvegicus (acute, oral, mortality), 1100 mg/kg. The NOEC in the data set with Avena sativa was found to be 11 g/ha; in the data set with Bibionidae, 0.583 mg/L; in the data set on Colinus virginianus (reproduction developmental), 54 mg/kg-day; in the data set with Daphnia magna, 0.013 mg/L; in the data set on Oncorhynchus mykiss (chronic/long-term, duration: 88 days, growth), 0.038 mg/L; in the data set with Tagia sp. (chronic/long-term, duration: 56 days, reproduction) it was 27.2 mg/kg. Besides, the LEL in the data set with Pardosa sp. was determined as 2280 g/ha. The NOAEL in the data set on Rattus norvegicus (acute, oral, clinical signs) was 60 mg/kg-day; with Rattus norvegicus (chronic, duration: 2 years, oral, diet, mortality) it was 2.5 mg/kg-day; in the data set on Rattus norvegicus (subchronic, duration: 90 days, histopathology: nonneoplastic), 6.4 mg/kg-day. In the data set with Rattus norvegicus (chronic, M, mortality), this compound displayed an NOEL of 9 mg/kg-day.
